EC50 data for 40 compounds are collected here from patent US12612412B2, “Antiviral heterocyclic compounds” (Enanta Pharmaceuticals, Inc., priority 2021, dated 2026).

Assay [1] relates to genotype A, "Long" strain RSV. Briefly: RSV-A assay (CPE protection in Hep-2 cells, ATPlite readout). The assay is classed as cell-based, Human respiratory syncytial virus (HRSV). The conditions noted are these: human respiratory syncytial virus, MOI 0.1, CPE protection. In short, it runs like this: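 In this cytopathic-effect protection format, infected Hep-2 cultures (MOI 0.1) are exposed to compound for 5 days. Surviving cell ATP is quantified with ATPlite, and EC50 is determined.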

For assay [2], the system named is HMPV clinical isolate TN/1501/A1. In words: HMPV antiviral assay Method-B (clinical isolate TN/1501/A1 in LLC-MK2 cells, ATP-Lite readout). In kind it is cell-based, Human metapneumovirus (HMPV). The settings on record: human metapneumovirus, LLC-MK2, 144 h, hMPV WT1501 (clinical isolate TN/1501/A1), 6 days. In short, it runs like this: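 EC50 derived by four-parameter logistic fit of percent cell health, measured by ATP-Lite luminescence and normalised to virus-only and uninfected-cell controls. Compounds run in duplicate from 10 μM top, 3-fold, 10 points. Infection: LLC-MK2 cells, MOI 0.014, 2 μg/mL final TPCK-trypsin, serum-free, 6 days at 37° C.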

[3] abbreviates: genotype A “Long” strain RSV, read-out: Human RSV-A (“Long”).
[4] abbreviates: RSV-A Long strain, read-out: Human RSV-A (“Long”) EC50.

Read-outs that look alike come from different tables or passages of the source.

Consider `Cc1cnc2c(OC(F)F)cc(C(=O)NC[C@](O)(c3cc4c(c(-c5ccc(F)cc5Cl)n3)OC[C@]4(C)C(N)=O)C(F)(F)F)cc2c1` [Example 524], for which the EC50 in assay [1] (setting [3]) was less than 200 nM; in assay [2] it was less than 500 nM.

`COc1cc(C(=O)NC[C@](O)(c2cc3c(c(-c4csc(C(F)(F)F)c4)n2)OC[C@]3(C)C(N)=O)C(F)(F)F)cc2cn(C3CC3)nc12` [Example 946]: the EC50 in assay [1] (setting [4]) was less than 200 nM; in assay [2] it was less than 500 nM.

As for `C[C@]1(C(N)=O)COc2c1cc([C@@](O)(CNC(=O)c1cc(F)c3nc(N)sc3c1)C1(F)CC1)nc2-c1ccc(F)cc1` [Example 709], the EC50 is less than 200 nM in assay [1] (setting [3]) and more than 500 nM in assay [2].

Turning to `COc1cc(C(=O)NC[C@](O)(c2cc3c(c(-c4cc(Cl)c(F)c(Cl)c4)n2)OC[C@]3(C)C(N)=O)C(F)(F)F)cc2cn(C3CC3)nc12` [Example 669], the EC50 is less than 200 nM in assay [1] (setting [3]) and more than 500 nM in assay [2].

As for `COc1cc(C(=O)NC[C@](O)(c2cc3c(c(-c4csc5c(F)cccc45)n2)OC[C@]3(C)C(N)=O)C(F)(F)F)cc2cc(Cl)c(C)nc12` [Example 596], the EC50 in assay [1] (setting [3]) is less than 200 nM; in assay [2], less than 500 nM.

On to `C[C@]1(C(N)=O)COc2c1cc([C@@](O)(CNC(=O)c1cc(OC3CC3)c3nn(C(F)F)cc3c1)C1CC1)nc2-c1ccc(F)c(Cl)c1F` [Example 568], for which the EC50 in assay [1] (setting [3]) is less than 200 nM; in assay [2] it was less than 500 nM.

With `COc1cc(C(=O)NC[C@](O)(c2cc3c(c(-c4cc5c(cc4Cl)OC(F)(F)O5)n2)OC[C@]3(C)C(N)=O)C(F)(F)F)cc2cn(C3CC3)nc12` [Example 1227], the figures for the EC50 in assay [1] (setting [4]) and in assay [2] were less than 200 nM and less than 500 nM, respectively.

For `COc1cc(C(=O)NC[C@](O)(c2cc3c(c(-c4ccc(F)cc4)n2)OC[C@@]3(C(N)=O)C(F)F)C2CC2)cc2cn(C3CC3)nc12` [Example 1023], the figures for the EC50 in assay [1] (setting [4]) and in assay [2] were less than 200 nM and less than 500 nM, respectively.

As for `COc1cc(C(=O)NC[C@](O)(c2cc3c(c(-c4ccc(F)c(Cl)c4)n2)OC[C@]3(C(N)=O)C(F)F)C2CC2)cc2cc(Cl)c(C)nc12` [Example 1032], the EC50 in assay [1] (setting [4]) was more than 200 nM; in assay [2], more than 500 nM.

Consider `Cc1cnc2c(OC(F)F)cc(C(=O)NC[C@](O)(c3cc4c(c(-c5ccc6c(c5)OC(F)(F)O6)n3)OC[C@]4(C(N)=O)C(F)F)C3CC3)cc2c1` [Example 1020], for which the figures for the EC50 in assay [1] (setting [4]) and in assay [2] were more than 200 nM and more than 500 nM, respectively.

As to `COc1cc(C(=O)NC[C@](O)(c2cc3c(c(-c4ccc(F)c(Cl)c4)n2)OC[C@]3(C)C(N)=O)C2CC2)ccc1OC1CC1` [Example 811], the EC50 in assay [1] (setting [3]) was less than 200 nM; in assay [2], less than 500 nM.

Take `COc1cc(C(=O)NC[C@](O)(c2cc3c(c(-c4csc5c(F)cccc45)n2)OC[C@]3(C)C(N)=O)C(F)(F)F)cc2cc(C3CC3)nn12` [Example 598]: the EC50 in assay [1] (setting [3]) was less than 200 nM; in assay [2] it was less than 500 nM.

As for `COc1cc(C(=O)NC[C@](O)(c2cc3c(c(-c4csc5c(F)cccc45)n2)OC[C@]3(C)C(N)=O)C2CC2)cc2cn(C3CC3)nc12` [Example 593], the EC50 in assay [1] (setting [3]) is less than 200 nM; in assay [2], less than 500 nM.

`COc1cc(C(=O)NC[C@](O)(c2cc3c(c(-c4cc(F)c(F)c(Cl)c4)n2)OC[C@]3(C)C(N)=O)C2CC2)cc2cn(C3(F)CC3)nc12` [Example 791]: the EC50 is less than 200 nM in assay [1] (setting [3]) and less than 500 nM in assay [2].

As for `Cc1cnc2c(OC(F)F)cc(C(=O)NC[C@](O)(c3cc4c(c(-c5cc(Cl)ccc5F)n3)OC[C@]4(C)C(N)=O)C3(F)CC3)cc2c1` [Example 736], the EC50 was less than 200 nM in assay [1] (setting [3]) and less than 500 nM in assay [2].

Regarding `COc1cc(C(=O)NC[C@](O)(c2nc(-c3ccc(F)cc3)c3c(c2F)[C@@](C)(C(N)=O)CO3)C(F)(F)F)cc2cn(C(F)F)nc12` [Example 853], the figures for the EC50 in assay [1] (setting [4]) and in assay [2] were less than 200 nM and less than 500 nM, respectively.

Take `C[C@]1(C(N)=O)COc2c1cc([C@@](O)(CNC(=O)c1cc(Cl)c3nn(C4CC4)cc3c1)C(F)(F)F)nc2-c1csc2c(F)cccc12` [Example 609]: the EC50 in assay [1] (setting [3]) is less than 200 nM; in assay [2] it was less than 500 nM.

Turning to `COc1cc(C(=O)NC[C@](O)(c2cc3c(c(-c4csc5c(F)cccc45)n2)OC[C@]3(C)C(N)=O)C2CC2)cc2cn(C(F)F)nc12` [Example 594], the EC50 in assay [1] (setting [3]) was less than 200 nM; in assay [2], less than 500 nM.

For `COc1cc(C(=O)NC[C@](O)(c2cc3c(c(-c4ccc(F)c(F)c4F)n2)OC[C@]3(C)C(N)=O)C(F)(F)F)cc2cn(C3(F)CC3)nc12` [Example 522], the EC50 in assay [1] (setting [3]) was less than 200 nM; in assay [2], less than 500 nM.

On to `Cc1cnc2c(OC(F)F)cc(C(=O)NC[C@](O)(c3cc4c(c(-c5ccc(F)c(Cl)c5)n3)OC[C@]4(C)C(N)=O)C3CC3)cc2c1` [Example 496], for which the EC50 in assay [1] (setting [3]) was less than 200 nM; in assay [2] it was less than 500 nM.

Consider `COc1cc(C(=O)NC[C@](O)(c2cc3c(c(-c4csc5ccc(F)cc45)n2)OC[C@]3(C)C(N)=O)C(F)(F)F)cc2cn(C3CC3)nc12` [Example 944], for which the values for the EC50 in assay [1] (setting [4]) and in assay [2] were less than 200 nM and more than 500 nM, respectively.

With `Cc1cnc2c(OC(F)(F)F)cc(C(=O)NC[C@](O)(c3cc4c(c(-c5ccc(F)cc5)n3)OC[C@]4(C)C(N)=O)C(F)(F)F)cc2c1` [Example 501], the EC50 is less than 200 nM in assay [1] (setting [3]) and more than 500 nM in assay [2].

`COc1cc(C(=O)NC[C@](O)(c2cc3c(c(-c4ccc(F)c(Cl)c4)n2)OC[C@]3(C)C(N)=O)C2(F)CC2)cc2cn(C3CC3)nc12` [Example 714]: the EC50 in assay [1] (setting [3]) is less than 200 nM; in assay [2], less than 500 nM.

For the compound `COc1cc(C(=O)NC[C@](O)(c2cc3c(c(-c4ccc(F)c(F)c4F)n2)OC[C@]3(C)C(N)=O)C2(F)CC2)cc2cc(Cl)c(C)nc12` [Example 731], the results for the EC50 in assay [1] (setting [3]) and in assay [2] were less than 200 nM and less than 500 nM, respectively.

As to `C[C@]1(C(N)=O)COc2c1cc([C@@](O)(CNC(=O)c1cc(Cl)c3nn(C4CC4)cc3c1)C1CC1)nc2-c1c(F)ccc(Cl)c1F` [Example 1166], the figures for the EC50 in assay [1] (setting [4]) and in assay [2] were less than 200 nM and less than 500 nM, respectively.

With `COc1cc(C(=O)NC[C@](O)(c2cc3c(c(-c4cc(F)c(F)c(Cl)c4)n2)OC[C@]3(C)C(N)=O)C2CC2)cc2cn(C(F)F)nc12` [Example 788], the EC50 is less than 200 nM in assay [1] (setting [3]) and less than 500 nM in assay [2].

As for `COc1cc(C(=O)NC[C@](O)(c2cc3c(c(-c4cc(F)c(F)c(Cl)c4)n2)OC[C@]3(C)C(N)=O)C2CC2)cc2cc(Cl)c(C)nc12` [Example 786], the figures for the EC50 in assay [1] (setting [3]) and in assay [2] were less than 200 nM and less than 500 nM, respectively.

Regarding `COc1cc(C(=O)NC[C@](O)(c2cc3c(c(-c4ccc(Cl)c(F)c4F)n2)OC[C@]3(C)C(N)=O)C2CC2)cc2cn(C3(F)CC3)nc12` [Example 685], the EC50 in assay [1] (setting [3]) was less than 200 nM; in assay [2], less than 500 nM.

Regarding `COc1ccc(C(=O)NC[C@](O)(c2cc3c(c(-c4ccc(F)c(Cl)c4)n2)OC[C@]3(C)C(N)=O)C(F)(F)F)cc1NC(=O)NC1CC1` [Example 627], the EC50 in assay [1] (setting [3]) is less than 200 nM; in assay [2], more than 500 nM.

Regarding `Cc1cnc2c(Cl)cc(C(=O)NC[C@](O)(c3cc4c(c(-c5ccc(F)c(F)c5F)n3)OC[C@]4(C)C(N)=O)C(F)(F)F)cc2c1` [Example 513], the EC50 in assay [1] (setting [3]) was less than 200 nM; in assay [2], less than 500 nM.

Turning to `Cc1cnc2c(OC(F)F)cc(C(=O)NC[C@](O)(c3cc4c(c(-c5cc(F)c(F)cc5F)n3)OC[C@]4(C)C(N)=O)C(F)(F)F)cc2c1` [Example 1142], the EC50 in assay [1] (setting [4]) was less than 200 nM; in assay [2], less than 500 nM.

Regarding `COc1cc(C(=O)NC[C@](O)(c2cc3c(c(-c4cc(F)ccc4F)n2)OC[C@]3(C)C(N)=O)C(F)(F)F)cc2cn(C3CC3)nc12` [Example 992], the EC50 is less than 200 nM in assay [1] (setting [4]) and less than 500 nM in assay [2].

For `C[C@]1(C(N)=O)COc2c1cc([C@@](O)(CNC(=O)c1cc(OCCF)c3nn(C4(F)CC4)cc3c1)C(F)(F)F)nc2-c1csc2c(F)cccc12` [Example 612], the results for the EC50 in assay [1] (setting [3]) and in assay [2] were less than 200 nM and less than 500 nM, respectively.

In the case of `COc1cc(C(=O)NC[C@](O)(c2cc3c(c(-c4csc(C(F)F)c4)n2)OC[C@]3(C)C(N)=O)C(F)(F)F)cc2cn(C3CC3)nc12` [Example 945], the EC50 was less than 200 nM in assay [1] (setting [4]) and more than 500 nM in assay [2].

`Cc1cnc2c(OCC(F)F)cc(C(=O)NC[C@](O)(c3cc4c(c(-c5ccc6c(c5)OC(F)(F)O6)n3)OC[C@]4(C)C(N)=O)C3CC3)cc2c1` [Example 541]: the EC50 in assay [1] (setting [3]) is less than 200 nM; in assay [2], less than 500 nM.

In the case of `COc1cc(C(=O)NC[C@@](O)(c2cc3c(c(-c4c(F)cc(F)cc4Cl)n2)OC[C@]3(C)C(N)=O)C(F)(F)F)cc2cn(C3CC3)nc12` [Example 1234], the values for the EC50 in assay [1] (setting [4]) and in assay [2] were more than 200 nM and more than 500 nM, respectively.

Turning to `CNC(=O)[C@@]1(C)COc2c1cc([C@@](O)(CNC(=O)c1cc(OC)c3nn(C4CC4)cc3c1)C(F)(F)F)nc2-c1ccc(F)cc1` [Example 1190], the EC50 in assay [1] (setting [4]) is less than 200 nM; in assay [2] it was less than 500 nM.

Turning to `COc1cc(C(=O)NC[C@](O)(c2cc3c(c(-c4cc(Br)c(F)cc4F)n2)OC[C@]3(C)C(N)=O)C2CC2)cc2cc(Cl)c(C)nc12` [Example 1094], the EC50 in assay [1] (setting [4]) is less than 200 nM; in assay [2], less than 500 nM.

As to `COc1cc(C(=O)NC[C@](O)(c2cc3c(c(-c4ccc(F)cc4)n2)OC[C@@]3(C(N)=O)C(F)F)C2CC2)cc2cc(Cl)c(C)nc12` [Example 1031], the EC50 is less than 200 nM in assay [1] (setting [4]) and less than 500 nM in assay [2].

With `COc1cc(C(=O)NC[C@](O)(c2cc3c(c(-c4cc(Br)c(F)cc4F)n2)OC[C@]3(C)C(N)=O)C2CC2)cc2cn(C3CC3)nc12` [Example 1088], the EC50 is less than 200 nM in assay [1] (setting [4]) and less than 500 nM in assay [2].
